Read-outs that look alike come from different tables or passages of the source. Some results are limits rather than exact numbers.

The target in this assay is human GLP-1R (Homo sapiens, UniProt P43220, G168S). Nature of the assay: CHO GLP-1R Clone H6 cAMP HTRF agonist assay (Assay 1, high receptor density). The note with it: for Emax: arithmetic mean; for EC50: CHO GLP-1R clone H6, cAMP HTRF, geometric mean. In kind it is cell-based. From the text: In Table 5 and Table 6, assay data are presented to two (2) significant figures as the geometric mean (EC50s) and arithmetic mean (Emax) based on the number of replicates listed (Number). A blank cell means there was no data for that Example or the Emax was not calculated.
human GLP-1R, sequence (P43220 24-463 G168S): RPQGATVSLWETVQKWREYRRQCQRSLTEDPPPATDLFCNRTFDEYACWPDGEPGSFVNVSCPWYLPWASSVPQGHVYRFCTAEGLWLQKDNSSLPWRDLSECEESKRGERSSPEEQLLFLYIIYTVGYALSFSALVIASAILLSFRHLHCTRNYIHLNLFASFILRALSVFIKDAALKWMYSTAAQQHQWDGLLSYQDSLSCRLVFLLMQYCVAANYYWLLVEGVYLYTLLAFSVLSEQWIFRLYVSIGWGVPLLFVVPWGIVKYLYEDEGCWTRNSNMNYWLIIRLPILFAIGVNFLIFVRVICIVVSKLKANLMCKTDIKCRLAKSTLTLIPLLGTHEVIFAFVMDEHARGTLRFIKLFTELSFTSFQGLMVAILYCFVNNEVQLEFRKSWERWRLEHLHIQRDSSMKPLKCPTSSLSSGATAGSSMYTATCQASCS

The mark [1] stands for this setting: CHO GLP-1R clone H6, relative to saturating GLP-1 (1 μM), read-out: Assay 1 Emax (%).

For the molecule `COCCn1c(CN2CCC(c3cccc4c3OC(C)(c3ccc(C#N)cn3)O4)CC2)nc2ccc(C(=O)O)cc21` (stereo not drawn) [Compound 98B, ammonium 2-({4-[2-(5-cyanopyridin-2-yl)-2-methyl-1,3-benzodioxol-4-yl]piperidin-1-yl}methyl)-1-(2-methoxyethyl)-1H-benzimidazole-6-carboxylate, ENT-X2], where the note is “relative to saturating full agonist GLP-1 (1 μM), read-out: Assay 1 Emax”, the maximal effect (Emax) was 89%.
In turn, `C[C@H]1CN(c2cccc(OCc3ccc(Cl)cc3F)n2)CCN1Cc1nc2ccc(C(=O)O)cc2n1Cc1ncco1` [Compound 148B, 2-{[(2S)-4-{6-[(4-chloro-2-fluorobenzyl)oxy]pyridin-2-yl}-2-methylpiperazin-1-yl]methyl}-1-(1,3-oxazol-2-ylmethyl)-1H-benzimidazole-6-carboxylic acid] yielded an EC50 of 340 nM. For the same molecule, under setting [1], the maximum response (Emax) is 74%.
As to `O=C(O)c1ccc2nc(CN3CCC(c4cccc(OCc5ccc(F)cc5F)n4)CC3)n(C[C@@H]3CCO3)c2n1` [Compound 118B, 2-[(4-{6-[(2,4-difluorobenzyl)oxy]pyridin-2-yl}piperidin-1-yl)methyl]-3-[(2S)-oxetan-2-ylmethyl]-3H-imidazo[4,5-b] pyridine-5-carboxylic acid], a half-maximal response (EC50) required 750 nM. Also, under setting [1], the maximal response (Emax) was determined as 76%.
`N#Cc1ccc(COc2cccc(C3CCN(Cc4nc5ccc(C(=O)O)cc5n4CC4CCO4)CC3)n2)c(F)c1` (stereo not shown) [Compound 109B, 2-[(4-{6-[(4-cyano-2-fluorobenzyl)oxy]pyridin-2-yl}piperidin-1-yl)methyl]-1-[oxetan-2-ylmethyl]-1H-benzimidazole-6-carboxylic acid]: under setting [1], the Emax was 83%.
`Cn1c(CN2CCC(c3cccc(OCc4ccc(C(F)(F)F)cc4F)n3)CC2)nc2ccc(C(=O)O)cc21` [Compound 222B, 2-{[4-(6-{[2-fluoro-4-(trifluoromethyl)benzyl]oxy}pyridin-2-yl)piperidin-1-yl]methyl}-1-methyl-1H-benzimidazole-6-carboxylic acid]: the response was half-maximal at 130 nM (EC50). Under setting [1], the Emax is 72%.
With `O=C(O)c1ccc2nc(CN3CCC(c4cccc(OCc5ccc(Cl)cc5F)n4)CC3)n([C@H]3CCOC3)c2c1` [Compound 272B, 2-[(4-{6-[(4-chloro-2-fluorobenzyl)oxy]pyridin-2-yl}piperidin-1-yl)methyl]-1-[(3S)-tetrahydrofuran-3-yl]-1H-benzimidazole-6-carboxylic acid], the EC50 is more than 20000 nM.
`Cn1cnc(CCn2c(CN3CCC(c4cccc(OCc5ccc(Cl)cc5F)n4)CC3)nc3ccc(C(=O)O)cc32)c1` [Compound 276B, 2-[(4-{6-[(4-chloro-2-fluorobenzyl)oxy]pyridin-2-yl}piperidin-1-yl)methyl]-1-[2-(1-methyl-1H-imidazol-4-yl)ethyl]-1H-benzimidazole-6-carboxylic acid] gave an EC50 of more than 20000 nM.
`O=C(O)c1ccc2nc(CN3CCC(c4cccc(OCc5ccc(Cl)cc5F)n4)CC3)n(CCN3CCOCC3)c2c1` [Compound 325B, 2-[(4-{6-[(4-chloro-2-fluorobenzyl)oxy]pyridin-2-yl}piperidin-1-yl)methyl]-1-[2-(morpholin-4-yl)ethyl]-1H-benzimidazole-6-carboxylic acid] showed a 50% effective concentration (EC50) of 2200 nM. Under setting [1], the Emax worked out at 87%.
Taken in the same sequence, the figures for `O=C(O)c1ccc2nc(CN3CCC(c4cccc(OCc5ccc(Cl)cc5F)n4)CC3)n(CC3CCCOC3)c2c1` (stereo not shown) [Compound 315B, 2-[(4-{6-[(4-chloro-2-fluorobenzyl)oxy]pyridin-2-yl}piperidin-1-yl)methyl]-1-(tetrahydro-2H-pyran-3-ylmethyl)-1H-benzimidazole-6-carboxylic acid] were 440 nM and 86%.
For `CCc1noc(Cn2c(CN3CCC(c4cccc(OCc5ccc(Cl)cc5F)n4)CC3)nc3ccc(C(=O)O)cc32)n1` [Compound 264B, 2-[(4-{6-[(4-chloro-2-fluorobenzyl)oxy]pyridin-2-yl}piperidin-1-yl)methyl]-1-[(3-ethyl-1,2,4-oxadiazol-5-yl)methyl]-1H-benzimidazole-6-carboxylic acid], the EC50 was more than 10000 nM. The Emax under setting [1] is 85%.
Taken in the same sequence, the figures for `COCCn1c(CN2CCN(c3cccc(OCc4ccc(C#N)cc4)n3)CC2)nc2ccc(C(=O)O)cc21` [Compound 171B, 2-[(4-{6-[(4-cyanobenzyl)oxy]pyridin-2-yl}piperazin-1-yl)methyl]-1-(2-methoxyethyl)-1H-benzimidazole-6-carboxylic acid] were 200 nM and 79%.
As to `Cn1cc(Cn2c(CN3CCC(c4cccc(OCc5ccc(Cl)cc5F)n4)CC3)nc3ccc(C(=O)O)cc32)nn1` [Compound 311B, 2-[(4-{6-[(4-chloro-2-fluorobenzyl)oxy]pyridin-2-yl}piperidin-1-yl)methyl]-1-[(1-methyl-1H-1,2,3-triazol-4-yl)methyl]-1H-benzimidazole-6-carboxylic acid], a half-maximal effect (EC50) was put at 350 nM. Also, the Emax under setting [1] amounted to 71%.
For the molecule `O=C(O)c1ccc2nc(CN3CCC(c4cccc(OCc5ccc(Cl)cc5F)n4)CC3)n(Cc3cnc[nH]3)c2c1` [Compound 312B, 2-[(4-{6-[(4-chloro-2-fluorobenzyl)oxy]pyridin-2-yl}piperidin-1-yl)methyl]-1-(1H-imidazol-5-ylmethyl)-1H-benzimidazole-6-carboxylic acid], it took 380 nM to reach a half-maximal effect (EC50). Besides, the maximal effect (Emax) under setting [1] was 68%.
Turning to `CCn1cncc1Cn1c(CN2CCN(c3cccc(OCc4ccc(C#N)cc4F)n3)C[C@@H]2C)nc2ccc(C(=O)O)cc21` [Compound 269B, 2-{[(2S)-4-{6-[(4-cyano-2-fluorobenzyl)oxy]pyridin-2-yl}-2-methylpiperazin-1-yl]methyl}-1-[(1-ethyl-1H-imidazol-5-yl)methyl]-1H-benzimidazole-6-carboxylic acid], the concentration giving a half-maximal response (EC50) is more than 20000 nM.
`COCCn1c(CN2CCN(c3cccc(OCc4ccc(C#N)cc4)n3)C[C@@H]2C)nc2ccc(C(=O)O)cc21` [Compound 172B, 2-{[(2S)-4-{6-[(4-cyanobenzyl)oxy]pyridin-2-yl}-2-methylpiperazin-1-yl]methyl}-1-(2-methoxyethyl)-1H-benzimidazole-6-carboxylic acid] came in with an EC50 of 2900 nM.
Molecule `COCCn1c(CN2CCC(c3cccc(OCc4ccc(Cl)cc4F)n3)CC2)nc2ccc(C(=O)O)cc21` [Compound 176B, 2-[(4-{6-[(4-chloro-2-fluorobenzyl)oxy]pyridin-2-yl}piperidin-1-yl)methyl]-1-(2-methoxyethyl)-1H-benzimidazole-6-carboxylic acid] had an EC50 of 2400 nM. Besides, the maximal effect (Emax) under setting [1] came out at 87%.
In turn, `O=C(O)c1ccc2nc(CN3CCC(c4cccc(OCc5ccc(Cl)cc5F)n4)CC3)n(CC3CC(F)(F)C3)c2c1` [Compound 326B, 2-[(4-{6-[(4-chloro-2-fluorobenzyl)oxy]pyridin-2-yl}piperidin-1-yl)methyl]-1-[(3,3-difluorocyclobutyl)methyl]-1H-benzimidazole-6-carboxylic acid] yielded an EC50 of 2500 nM. Besides, the Emax under setting [1] is 71%.
`CN1CC[C@@H]1Cn1c(CN2CCC(c3cccc(OCc4ccc(Cl)cc4F)n3)CC2)nc2ccc(C(=O)O)cc21` (stereo in doubt) [Compound 275B, 2-[(4-{6-[(4-chloro-2-fluorobenzyl)oxy]pyridin-2-yl}piperidin-1-yl)methyl]-1-[(1-methylazetidin-2-yl)methyl]-1H-benzimidazole-6-carboxylic acid] displayed a 50% effective concentration (EC50) of more than 20000 nM.
The molecule `CCN1CCC[C@@H]1Cn1c(CN2CCC(c3cccc(OCc4ccc(Cl)cc4F)n3)CC2)nc2ccc(C(=O)O)cc21` [Compound 329B, 2-[(4-{6-[(4-chloro-2-fluorobenzyl)oxy]pyridin-2-yl}piperidin-1-yl)methyl]-1-{[(2R)-1-ethylpyrrolidin-2-yl]methyl}-1H-benzimidazole-6-carboxylic acid] had a 50% effective concentration (EC50) of 4000 nM. Moreover, the Emax under setting [1] was found to be 91%.
As for `CCn1cncc1Cn1c(CN2CCN(c3cccc(OCc4ccc(C#N)cc4F)n3)CC2)nc2ccc(C(=O)O)cc21` [Compound 152B, 2-[(4-{6-[(4-cyano-2-fluorobenzyl)oxy]pyridin-2-yl}piperazin-1-yl)methyl]-1-[(1-ethyl-1H-imidazol-5-yl)methyl]-1H-benzimidazole-6-carboxylic acid], the EC50 amounted to 370 nM. For the same molecule, the Emax under setting [1] came out at 75%.
Turning to `CC(c1nncn1C)n1c(CN2CCC(c3cccc(OCc4ccc(Cl)cc4F)n3)CC2)nc2ccc(C(=O)O)cc21` (stereo not shown) [Compound 327B, 2-[(4-{6-[(4-chloro-2-fluorobenzyl)oxy]pyridin-2-yl}piperidin-1-yl)methyl]-1-[1-(4-methyl-4H-1,2,4-triazol-3-yl)ethyl]-1H-benzimidazole-6-carboxylic acid], the EC50 came to 2900 nM. The Emax under setting [1] came to 88%.
Taken in the same sequence, the figures for `COCCn1c(CN2CCN(c3cccc(OCc4ccc(Cl)cc4F)n3)CC23CC3)nc2ccc(C(=O)O)cc21` [Compound 349B, 2-[(7-{6-[(4-chloro-2-fluorobenzyl)oxy]pyridin-2-yl}-4,7-diazaspiro[2.5]oct-4-yl)methyl]-1-(2-methoxyethyl)-1H-benzimidazole-6-carboxylic acid] were 1200 nM and 58%.
`COC1(Cn2c(CN3CCC(c4cccc(OCc5ccc(Cl)cc5F)n4)CC3)nc3ccc(C(=O)O)cc32)CCC1` [Compound 177B, 2-[(4-{6-[(4-chloro-2-fluorobenzyl)oxy]pyridin-2-yl}piperidin-1-yl)methyl]-1-[(1-methoxycyclobutyl)methyl]-1H-benzimidazole-6-carboxylic acid] returned an EC50 of 880 nM.
As to `O=C(O)c1cnc2nc(CN3CCC(c4cccc(OCc5ccc(Cl)cc5F)n4)CC3)n(CC(F)(F)F)c2c1` [Compound 212B, 2-[(4-{6-[(4-chloro-2-fluorobenzyl)oxy]pyridin-2-yl}piperidin-1-yl)methyl]-1-(2,2,2-trifluoroethyl)-1H-imidazo[4,5-b]pyridine-6-carboxylic acid], the EC50 was 190 nM. For the same molecule, the Emax under setting [1] is 71%.
